Test results from paper PMC11539229 (Antimicrobial Agents and Chemotherapy, 2024).
≈ marks a conversion by molar mass, not a printed value. Where two headings read alike, the source gives them in different places.

Assays:
M. tuberculosis H37Rv = type: in vivo, BALB/c mice; settings: for effect of addition to BPaL on bactericidal activity: experiment 5; for additional reduction of lung CFU counts on addition to RZ: vs RZ; for reduction of lung CFU counts: monotherapy 300 mg/kg
[1] = tested on: drug-susceptible, MDR and XDR M.tb clinical isolates; assay: microbe, parasite or virus in culture; type: cell-based, M. tuberculosis; settings: drug-susceptible, MDR and XDR clinical isolates
[2] = mouse, in vivo
Source text: (§1) The calculated exposures at EDmax for GSK138 and GSK693 were obtained using the intravenous mouse PK profiles fitting to a bicompartmental model to obtain those parameters to simulate the oral whole blood exposures at EDmax. Additionally, a monocompartmental model was used to fit the experimental oral pharmacokinetic studies in non-infected mouse together with measured plasma concentrations obtained from the sparse sampling in the experiment 2 in infected mice. Parameters obtained from this fitting were used to simulate the profile after GSK693 administration at 100, 200, and 300 mg/kg in the combination study and to calculate the associated exposures (see Table 2).

[3] = Sparse plasma sampling in infected mice of the combination study (experiment 2); type: in vivo, mouse; settings: for Plasma AUC0–24 h: monocompartmental model, combination study; for Blood AUC0–24 h: plasma value transformed with blood/plasma ratio 1.79
Source text: as §1
Tail vein blood was collected at the indicated time points. Briefly, an incision was made in the lateral tail vein. Blood (20–50 µL) was collected in BD Microtainer PST lithium heparin tubes from each mouse. The tubes were kept on ice before being centrifuged at 8,000 rpm for 5 min. The supernatant plasma (15–30 µL) was transferred to labeled microcentrifuge tubes, frozen, and stored at −80°C and then shipped on dry ice to GSK for further analysis.
Ten microliters of plasma or blood samples thawed at ambient temperature was mixed with 200 µL of acetonitrile (ACN):MeOH (80:20). After this protein precipitation step, samples were filtered using a 0.45-µm filter plate [Multiscreen Solvinert 0.45-μm polytetrafluoroethylene (PTFE), Millipore] and then filtered using a 0.2-µm filter [AcroPrep Advance 96 Filter Plate 350 µL, 0.2-µm polytetrafluoroethylene (PTFE)] to ensure sterilization prior to LC-MS analysis.

[4] = mouse, in vivo, 10 mg/kg; cited from earlier work

For `COc1c(N2C[C@@H]3CCCN[C@@H]3C2)c(F)cc2c(=O)c(C(=O)O)cn(C3CC3)c12` [moxifloxacin, reference compound], the “effect of addition to BPaL on bactericidal activity” value (M. tuberculosis H37Rv; 4 weeks of treatment) was “trend toward enhanced activity”.

With `Cc1csc([C@](C)(O)c2nnc(Nc3ccn(Cc4csc(C)n4)n3)s2)n1` [GSK693] the MIC90 [1] was 1.87 µM (≈ 0.785 µg/mL), the “exposure needed to achieve the maximum effect in monotherapy in the acute infection model” value [2] was 110,200 ng·h/mL and the “additional reduction of lung CFU counts on addition to RZ” value (shortened to “additional reduction of lung CFU counts”) (M. tuberculosis H37Rv; experiment 1, 300 mg/kg, week 8) was 1.44 log. For the same molecule, the “additive effect when combined with sutezolid, linezolid, or pretomanid (lung CFU)” value (M. tuberculosis H37Rv; experiment 1, GSK693 300 mg/kg) was “No additive effect”, the “reduction of lung CFU counts” value (M. tuberculosis H37Rv; experiment 1, 4 weeks of treatment) was 1.34 log10 and the “reduction of lung CFU counts” value (M. tuberculosis H37Rv; experiment 1, 8 weeks of treatment) was 2.33 log10. For the same molecule, the “additional reduction of lung CFU counts” value (M. tuberculosis H37Rv; experiment 2, 100 mg/kg, 8 weeks) was 1.17 log, the “additional reduction of lung CFU counts” value (M. tuberculosis H37Rv; experiment 2, 200 mg/kg, 8 weeks) was 1.28 log and the “additional reduction of lung CFU counts” value (M. tuberculosis H37Rv; experiment 2, 300 mg/kg, 8 weeks) was 0.76 log. The “activity of the combination with RZ vs RZ alone or RZ with isoniazid” value (M. tuberculosis H37Rv; mouse, in vivo) was “significantly more active”, the “effect on the activity of the RZ combination” value (M. tuberculosis H37Rv; mouse, in vivo) was “significantly enhanced” and the “efficacy in combination with pretomanid and pyrazinamide compared with moxifloxacin” value (M. tuberculosis H37Rv; mouse, in vivo, 300 mg/kg) was “nor was it as effective as moxifloxacin”. The “Plasma AUC0–24 h” value ([3]; 100 mg/kg) was 12,867 ng·h/mL, the “Blood AUC0–24 h” value ([3]; 100 mg/kg) was 23,032 ng·h/mL and the “Plasma AUC0–24 h” value ([3]; 200 mg/kg) was 27,337 ng·h/mL. For the same molecule, the “Blood AUC0–24 h” value ([3]; 200 mg/kg) was 48,933 ng·h/mL, the “Plasma AUC0–24 h” value ([3]; 300 mg/kg) was 64,866 ng·h/mL and the “Blood AUC0–24 h” value ([3]; 300 mg/kg) was 116,110 ng·h/mL.

In the case of `CO[C@H]1/C=C/O[C@@]2(C)Oc3c(C)c(O)c4c(O)c(c(/C=N/N5CCN(C)CC5)c(O)c4c3C2=O)NC(=O)/C(C)=C\C=C\[C@H](C)[C@H](O)[C@@H](C)[C@@H](O)[C@@H](C)[C@H](OC(C)=O)[C@@H]1C` [rifampicin, reference compound], the AUC(0-t) ([3]; mouse, plasma, rifampicin co-administered with pyrazinamide, experiment 2, read-out: Plasma AUC0–24 h) is given as 68500 ng·h/mL and the “AUC0–24 h” value [4] is given as 87,200–142,100 ng·h/mL.

For `NNC(=O)c1ccncc1` [isoniazid, reference compound], the “effect of addition to BPaL on bactericidal activity” value (M. tuberculosis H37Rv; 4 weeks of treatment) was “significantly increased the bactericidal activity” and the “effect on the activity of the RZ combination” value (M. tuberculosis H37Rv; mouse, in vivo) was “did not enhance the activity”.
